Laboratory results: patent US20230104936A1, “TRPML MODULATORS” (Casma Therapeutics, Inc., priority 2019, published 2023)

Test system: TFEB
Assay: TFEB nuclear translocation assay, HeLa wt cells
Type: cell-based
Settings: Homo sapiens, HeLa, 2 h, 2 hrs compound treatment, Table 1 does not say HeLa wt or TRPML1 KO
Summary of the method: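 Cells are plated overnight, exposed to compounds for 2 hrs at 37° C, fixed with 4% PFA, blocked, and stained overnight at 4° C with rabbit anti-TFEB. After Alexa 488 secondary and Hoechst, nuclei and a perinuclear ring are segmented to give a nuclear:ring intensity ratio and AC50.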

Which AC50 does the source give for `CC(c1cccc(F)c1N1CCOCC1)S(=O)(=O)c1ccc2c(c1)CCS2(=O)=O` (centres unmarked) [Compound A-957, 5-{1-[3-fluoro-2-(morpholin-4-yl)phenyl]ethanesulfonyl}-2,3-dihydro-1λ^6-benzothiophene-1,1-dione] here?
The AC50 was no less than 10000 nM.

How did the AC50 turn out when `CC(c1cc(Cl)cnc1N1CCC(CN2CCC(F)(F)CC2)CC1)S(=O)(=O)c1ccc(S(=O)(=O)N(C)C)cc1` (centres unmarked) [Compound A-958, 4-[1-(5-chloro-2-{4-[(4,4-difluoropiperidin-1-yl)methyl]piperidin-1-yl}pyridin-3-yl)ethanesulfonyl]-N,N-dimethylbenzene-1-sulfonamide] was run?
Its AC50 is no more than 2000 nM.

For `C[C@@H]1CN(c2nn(S(=O)(=O)c3ccc(S(=O)(=O)N(C)C)cc3)c3ccccc23)C[C@H](C)C1(F)F` [Compound A-968, 4-({3-[(3R,5S)-4,4-difluoro-3,5-dimethylpiperidin-1-yl]-1H-indazol-1-yl}sulfonyl)-N,N-dimethylbenzene-1-sulfonamide], which AC50 is on record?
The AC50 was no more than 2000 nM.

For `C[C@@H]1CN(c2nn(S(=O)(=O)c3ccc(S(=O)(=O)N(C)C)cc3)c3ccccc23)C[C@H](C)C1F` (stereo partly drawn) [Compound A-969, 4-({3-[(3R,5S)-4-fluoro-3,5-dimethylpiperidin-1-yl]-1H-indazol-1-yl}sulfonyl)-N,N-dimethylbenzene-1-sulfonamide], which AC50 is on record?
The AC50 was no more than 2000 nM.

Which AC50 does the source give for `CC(c1cccc(F)c1N1CCC(CN2C[C@@H](C)C(F)(F)[C@@H](C)C2)CC1)S(=O)(=O)c1ccc(S(=O)(=O)N(C)C)cc1` (stereo partly drawn) [Compound A-970, 4-{1-[2-(4-{[(3R,5S)-4,4-difluoro-3,5-dimethylpiperidin-1-yl]methyl}piperidin-1-yl)-3-fluorophenyl]ethanesulfonyl}-N,N-dimethylbenzene-1-sulfonamide] here?
The AC50 was no more than 2000 nM.

How did the AC50 turn out when `CC(Sc1ccc(S(=O)(=O)C(F)F)cc1)c1cccc(F)c1N1CCCCC1` (centres unmarked) [Compound A-971, 1-(2-{1-[(4-difluoromethanesulfonylphenyl)sulfanyl]ethyl}-6-fluorophenyl)piperidine] was run?
Its AC50 is 2010 to 8000 nM.

With `CC(c1cccc(F)c1N1CCCCC1)[S+]([O-])c1ccc(S(=O)(=O)C(F)F)cc1` (centres unmarked) [Compound A-972, 1-{2-[1-(4-difluoromethanesulfonylbenzenesulfinyl)ethyl]-6-fluorophenyl}piperidine] as the compound, how does the AC50 read?
Its AC50 is 2010 to 8000 nM.

With `CC(c1cccc(F)c1N1CCCCC1)S(=O)(=O)c1ccc(S(=O)(=O)C(F)F)cc1` (centres unmarked) [Compound A-973, 1-{2-[1-(4-difluoromethanesulfonylbenzenesulfonyl)ethyl]-6-fluorophenyl}piperidine] as the compound, how does the AC50 read?
Its AC50 is no more than 2000 nM.

With `C[C@@H]1COC[C@H](C)N1C[C@H]1CCN(c2c(F)cccc2NS(=O)(=O)c2ccc(S(=O)(=O)N(C)C)cc2)C1` [Compound A-984] as the compound, how does the AC50 read?
The AC50 was no more than 2000 nM.

Which AC50 does the source give for `CC(c1cccc(F)c1N1CCC(CN2CC3CCC(C2)C3(F)F)CC1)S(=O)(=O)c1ccc(S(=O)(=O)N(C)C)cc1` (centres unmarked) [Compound A-985, 4-(1-{2-[4-({8,8-difluoro-3-azabicyclo[3.2.1]octan-3-yl}methyl)piperidin-1-yl]-3-fluorophenyl}ethanesulfonyl)-N,N-dimethylbenzene-1-sulfonamide] here?
Its AC50 is no more than 2000 nM.

`CC(c1cncc(F)c1N1CCC(F)(F)CC1)S(=O)(=O)c1ccc(S(=O)(=O)N(C)C)cc1` (centres unmarked) [Compound A-986, 4-{1-[4-(4,4-difluoropiperidin-1-yl)-5-fluoropyridin-3-yl]ethanesulfonyl}-N,N-dimethylbenzene-1-sulfonamide] was tested. Which AC50 did it give?
The AC50 was no less than 10000 nM.

How did the AC50 turn out when `CC(c1cccnc1N1CCC(CN2CCC(F)(F)CC2)CC1)S(=O)(=O)c1ccc(S(=O)(=O)N(C)C)cc1` (centres unmarked) [Compound A-987, 4-[1-(2-{4-[(4,4-difluoropiperidin-1-yl)methyl]piperidin-1-yl}pyridin-3-yl)ethanesulfonyl]-N,N-dimethylbenzene-1-sulfonamide] was run?
The AC50 was no more than 2000 nM.

How did the AC50 turn out when `CC(c1cncc(F)c1N1CCC(CN2CCC(F)(F)CC2)CC1)S(=O)(=O)c1ccc(S(=O)(=O)N(C)C)cc1` (centres unmarked) [Compound A-996, 4-[1-(4-{4-[(4,4-difluoropiperidin-1-yl)methyl]piperidin-1-yl}-5-fluoropyridin-3-yl)ethanesulfonyl]-N,N-dimethylbenzene-1-sulfonamide] was run?
The AC50 was no more than 2000 nM.

For `CC(c1cccc(F)c1N1CCC(CN2C[C@@H](C)O[C@@H](C)C2)CC1)S(=O)(=O)c1ccc(N=S(C)(C)=O)cc1` (stereo partly drawn) [Compound A-1002, [(4-{1-[2-(4-{[(2R,6S)-2,6-dimethylmorpholin-4-yl]methyl}piperidin-1-yl)-3-fluorophenyl]ethanesulfonyl}phenyl)imino]dimethyl-λ^6-sulfanone], which AC50 is on record?
The AC50 was no less than 10000 nM.
